Laboratory results taken from patent publication US12673946B2, “Pyrimidin-4(3H)-one derivatives as TRPV4 antagonists” (RaQualia Pharma Inc., priority 2020, dated 2026).

Target: T1, human TRPV4 (Homo sapiens, UniProt Q9HBA0)
T1 construct: host or cells: tetracycline-inducible Flp-In T-REx 293 cells
Test: Hypotonicity-induced Ca2+ influx (Fluo-4, FDSS)
Assay type: cell-based
In short: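 Flp-In T-REx 293 cells with tetracycline-induced human TRPV4, loaded with Fluo-4 for 60 min at 25 °C. Compound added 5 min before hypotonic mannitol/CaCl2 solution. Ca2+ signal recorded for 4.5 min on FDSS.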

[1] = Flp-In T-REx 293 cells expressing human TRPV4, examples listed under heading 'Human IC50<50 nM'
[2] = Flp-In T-REx 293 cells stably expressing human TRPV4, compounds listed by potency bin (<10 nM Tables 96-1/96-2, <3 nM Table 97)

T1 sequence (Q9HBA0 whole entry): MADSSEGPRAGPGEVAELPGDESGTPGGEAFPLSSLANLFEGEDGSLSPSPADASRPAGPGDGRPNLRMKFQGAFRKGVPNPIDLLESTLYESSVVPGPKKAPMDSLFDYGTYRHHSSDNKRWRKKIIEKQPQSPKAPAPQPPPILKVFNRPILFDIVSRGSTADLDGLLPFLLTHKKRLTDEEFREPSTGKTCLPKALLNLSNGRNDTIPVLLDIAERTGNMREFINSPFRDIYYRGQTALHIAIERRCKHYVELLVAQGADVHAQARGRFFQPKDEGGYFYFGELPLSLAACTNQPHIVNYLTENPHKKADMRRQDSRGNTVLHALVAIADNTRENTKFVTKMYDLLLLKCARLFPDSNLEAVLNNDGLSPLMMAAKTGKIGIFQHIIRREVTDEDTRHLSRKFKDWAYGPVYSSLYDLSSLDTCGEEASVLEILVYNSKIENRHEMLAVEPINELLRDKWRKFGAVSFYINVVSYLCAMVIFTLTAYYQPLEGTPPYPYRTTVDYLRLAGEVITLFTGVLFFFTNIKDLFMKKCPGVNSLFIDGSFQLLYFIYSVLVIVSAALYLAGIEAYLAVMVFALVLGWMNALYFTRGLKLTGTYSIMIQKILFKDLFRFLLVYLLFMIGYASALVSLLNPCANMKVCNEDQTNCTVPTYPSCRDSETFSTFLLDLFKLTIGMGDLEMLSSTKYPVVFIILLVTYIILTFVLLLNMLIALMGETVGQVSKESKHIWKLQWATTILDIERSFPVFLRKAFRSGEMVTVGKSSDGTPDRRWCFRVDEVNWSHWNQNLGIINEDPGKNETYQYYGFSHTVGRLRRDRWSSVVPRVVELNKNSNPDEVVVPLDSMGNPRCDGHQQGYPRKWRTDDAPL

Row | IC50 [1] [nM] | IC50 [2] [nM] | Structure (SMILES)
1 | < 50 | < 10 | CC(C)c1cncc(C2(c3nc4c(c(=O)[nH]3)CN(C(=O)[C@H](O)c3cccc(-c5ccc(F)cc5)c3)CC4)CC2)c1 [47-3]
2 | < 50 | < 10 | O=C(C(O)c1cccc(-c2cccc(C(F)(F)F)c2)c1)N1CCc2nc(C3(c4cccc(Cl)c4)CC3)[nH]c(=O)c2C1 (stereo not shown) [14-8]
3 | < 50 | < 3 | O=C([C@H](O)c1cccc(-c2ccc3c(c2)OC(F)(F)O3)c1)N1CCCc2nc(C3(c4cccc(Cl)c4)CC3)[nH]c(=O)c2C1 [50-15]
4 | < 50 | < 10 | O=C(Cc1cccc(-c2ccc(Cl)cc2)c1)N1CCCc2nc(C3(c4cccc(Cl)c4)CC3)[nH]c(=O)c2C1 [17-130]
5 | < 50 | < 3 | C=C(C)c1cccc(C2(c3nc4c(c(=O)[nH]3)CN(C(=O)[C@H](O)c3cccc(C(F)(F)F)c3)CCC4)CC2)c1 [17-1]
6 | < 50 | < 3 | O=C([C@H](O)c1cccc(-c2cccc(C(F)(F)F)c2)c1)N1CCCc2nc(C3(c4cccc(Cl)c4)CC3)[nH]c(=O)c2C1 [50-4]
7 | < 50 | < 10 | O=C(C(O)c1cccc(-c2ccc(Cl)cc2)c1)N1CCCc2nc(C3(c4cccc(Cl)c4)CC3)[nH]c(=O)c2C1 (stereo not shown) [17-17]
8 | < 50 | < 10 | O=C([C@H](O)c1cccc(-c2ccc(OCc3ccccc3)nc2)c1)N1CCc2nc(C3(c4ccccc4)CC3)[nH]c(=O)c2C1 [44-83]
9 | < 50 |  | Cn1cc(-c2cccc(C3(c4nc5c(c(=O)[nH]4)CN(C(=O)[C@H](O)c4cccc(C(F)(F)F)c4)CCC5)CC3)c2)ccc1=O [42-38]
10 | < 50 | < 10 | O=C(C(O)c1cccc(-c2cnc3ccccc3c2)c1)N1CCc2nc(C3(c4cccc(Cl)c4)CC3)[nH]c(=O)c2C1 (stereo not shown) [14-3]
11 | < 50 |  | O=C([C@H](O)c1cccc(Cl)c1)N1CCc2nc(C3(c4cccc(Br)c4)CC3)[nH]c(=O)c2C1 [14-26]
12 | < 50 | < 3 | N#Cc1cc(-c2cccc(C3(c4nc5c(c(=O)[nH]4)CN(C(=O)[C@H](O)c4cccc(C(F)(F)F)c4)CCC5)CC3)c2)ccc1F [42-66]
13 | < 50 | < 10 | O=C(C(O)c1cccc(SC(F)(F)F)c1)N1CCCc2nc(C3(c4cccc(Cl)c4)CC3)[nH]c(=O)c2C1 (stereo not shown) [17-28]
14 | < 50 | < 10 | N#Cc1cc(Cl)cc(-c2cccc(CC(=O)N3CCCc4nc(C5(c6ccccc6)CC5)[nH]c(=O)c4C3)c2)c1 [17-138]
15 | < 50 | < 3 | Cc1cc(-c2cccc([C@@H](O)C(=O)N3CCCc4nc(C5(c6cccc(Cl)c6)CC5)[nH]c(=O)c4C3)c2)ccc1Cl [50-19]
16 | < 50 | < 10 | O=C(C(O)c1cccc(-c2cccc(C(F)(F)F)c2)c1)N1CCCc2nc(C3(c4cccc(F)c4)CC3)[nH]c(=O)c2C1 (stereo not shown) [17-14]
17 | < 50 | < 3 | O=C([C@H](O)c1cccc(C(F)(F)F)c1)N1CCCc2nc(C3(c4cc(Br)cs4)CC3)[nH]c(=O)c2C1 [18-2]
18 | < 50 | < 10 | O=C(C(O)c1cccc(-c2cccc(C(F)(F)F)c2)n1)N1CCc2nc(C3(c4ccccc4)CC3)[nH]c(=O)c2C1 (stereo not shown) [48-1]
19 | < 50 | < 10 | O=C([C@H](O)c1cccc(C(F)(F)F)c1)N1CCCc2nc(C3(c4cc(C(=O)N(C5CCCCC5)C5CCCCC5)cs4)CC3)[nH]c(=O)c2C1 [59-18]

Row | IC50 [1] [nM] | IC50 [2] [nM] | Structure (SMILES)
20 | < 50 | < 3 | O=C([C@H](O)c1cccc(C(F)(F)F)c1)N1CCCc2nc(C3(c4cccc(-c5ccc(OCc6ccccn6)cc5)c4)CC3)[nH]c(=O)c2C1 [42-43]
21 | < 50 |  | O=C(C(O)c1ccccc1C(F)(F)F)N1CCCc2nc(C3(c4cccc(Cl)c4)CC3)[nH]c(=O)c2C1 (stereo not shown) [17-43]
22 | < 50 | < 3 | CC1(C)CCC(c2cccc(C3(c4nc5c(c(=O)[nH]4)CN(C(=O)[C@H](O)c4cccc(C(F)(F)F)c4)CCC5)CC3)c2)CC1 [31-3]
23 | < 50 |  | CC(C(=O)N1CCCc2nc(C3(c4ccccc4)CC3)[nH]c(=O)c2C1)c1cccc(C(F)(F)F)c1 (stereo not shown) [17-46]
24 | < 50 | < 10 | O=C([C@H](O)c1cccc(-c2cc(Cl)cc(C(F)(F)F)c2)c1)N1CCc2nc(C3(c4cccc(Cl)c4)CC3)[nH]c(=O)c2C1 [45-10]
25 | < 50 | < 10 | O=C([C@H](O)c1cccc(-c2ccc(OC(F)(F)F)cc2)c1)N1CCCc2nc(C3(c4cccc(Cl)c4)CC3)[nH]c(=O)c2C1 [50-26]
26 | < 50 |  | O=C(C(O)c1cccc(C(F)(F)F)c1F)N1CCc2nc(C3(c4cccc(F)c4)CC3)[nH]c(=O)c2C1 (stereo not shown) [14-29]
27 | < 50 | < 10 | O=C(C(O)c1cccc(-c2cccc(C(F)(F)F)c2)c1)N1CCc2nc(C3(c4ccccc4)CC3)[nH]c(=O)c2C1 (stereo not shown) [44-6]
28 | < 50 | < 10 | O=C(C(O)c1cccc(SC(F)(F)F)c1)N1CCCc2nc(C3(c4cccs4)CC3)[nH]c(=O)c2C1 (stereo not shown) [18-6]
29 | < 50 |  | CC(C)c1cccc(C2(c3nc4c(c(=O)[nH]3)CN(C(=O)C(O)c3cccc(-c5cccc(C(F)(F)F)c5)c3)CCC4)CC2)c1 (stereo not shown) [17-45]
30 | < 50 | < 3 | O=C([C@H](O)c1cccc(-c2ccc3c(c2)OC(F)(F)O3)c1)N1CCc2nc(C3(c4ccccc4)CC3)[nH]c(=O)c2C1 [44-85]
31 | < 50 | < 3 | O=C(Cc1cccc(-c2cccc(Cl)c2)c1)N1CCCc2nc(C3(c4cccc(Cl)c4)CC3)[nH]c(=O)c2C1 [17-100]
32 | < 50 | < 10 | COCCn1cc(-c2cccc(C3(c4nc5c(c(=O)[nH]4)CN(C(=O)[C@H](O)c4cccc(C(F)(F)F)c4)CCC5)CC3)c2)cn1 [42-23]
33 | < 50 | < 3 | O=C([C@H](O)c1cccc(C(F)(F)F)c1)N1CCCc2nc(C3(c4cc(C5CCCC5)cs4)CC3)[nH]c(=O)c2C1 [30-1]
34 | < 50 | < 10 | O=C([C@H](O)c1cccc(-c2ccc(Cl)c(C(F)(F)F)c2)c1)N1CCCc2nc(C3(c4cccc(Cl)c4)CC3)[nH]c(=O)c2C1 [50-23]
35 | < 50 |  | O=C([C@H](O)c1cccc(-c2cc(F)cc(Cl)c2)c1)N1CCc2nc(C3(c4cccc(Cl)c4)CC3)[nH]c(=O)c2C1 [45-9]
36 | < 50 | < 10 | O=C([C@H](O)c1cccc(-c2cccc(C(F)(F)F)c2)c1)N1CCCc2nc(C3(c4cccc(C5CCCCC5)c4)CC3)[nH]c(=O)c2C1 [52-2]
37 | < 50 | < 10 | O=C(C(O)c1cccc(C2CC2)c1)N1CCCc2nc(C3(c4cccc(Cl)c4)CC3)[nH]c(=O)c2C1 (stereo not shown) [17-24]
38 | < 50 | < 3 | O=C(C(O)c1cccc(-c2cccc(OC(F)(F)F)c2)c1)N1CCc2nc(C3(c4cccs4)CC3)[nH]c(=O)c2C1 (stereo not shown) [15-28]

Row | IC50 [1] [nM] | IC50 [2] [nM] | Structure (SMILES)
39 | < 50 | < 3 | CC(C)c1csc(C2(c3nc4c(c(=O)[nH]3)CN(C(=O)C(O)c3cccc(Cl)c3F)CCC4)CC2)c1 (stereo not shown) [18-17]
40 | < 50 | < 10 | O=C([C@H](O)c1cccc(-c2cccc(F)c2)c1)N1CCCc2nc(C3(c4cccs4)CC3)[nH]c(=O)c2C1 [53-5]
41 | < 50 | < 10 | O=C([C@H](O)c1cccc(C(F)(F)F)c1)N1CCCc2nc(C3(c4cccc(-c5cc(F)cc(F)c5)c4)CC3)[nH]c(=O)c2C1 [42-61]
42 | < 50 | < 3 | O=C([C@H](O)c1cccc(Cl)c1)N1CCCc2nc(C3(c4cc(C5CCCC5)cs4)CC3)[nH]c(=O)c2C1 [18-23]
43 | < 50 | < 3 | CN(C)c1ccc(-c2cccc(C3(c4nc5c(c(=O)[nH]4)CN(C(=O)[C@H](O)c4cccc(C(F)(F)F)c4)CCC5)CC3)c2)cc1 [42-11]
44 | < 50 | < 10 | Cc1cc(Cl)cc(-c2cccc([C@@H](O)C(=O)N3CCc4nc(C5(c6ccccc6)CC5)[nH]c(=O)c4C3)c2)c1 [44-96]
45 | < 50 | < 10 | CC(C)c1cncc(C2(c3nc4c(c(=O)[nH]3)CN(C(=O)C(O)c3cccc(-c5cccc(OC(F)(F)F)c5)c3)CCC4)CC2)c1 (stereo not shown) [55-2]
46 | < 50 | < 10 | O=C([C@H](O)c1cccc(C(F)(F)F)c1)N1CCCc2nc(C3(c4cccc(F)c4)CC3)[nH]c(=O)c2C1 [17-36]
47 | < 50 | < 3 | O=C([C@H](O)c1cccc(-c2cccc(C(F)(F)F)c2)c1)N1CCc2nc(C3(c4ccccc4)CC3)[nH]c(=O)c2C1 [44-71]
48 | < 50 | < 10 | O=C([C@H](O)c1cccc(C(F)(F)F)c1)N1CCCc2nc(C3(c4cccc(-c5ccc(F)cc5)c4)CC3)[nH]c(=O)c2C1 [42-59]
49 | < 50 | < 3 | O=C([C@H](O)c1cccc(Cl)c1)N1CCCc2nc(C3(c4cc(-c5ccccc5)cs4)CC3)[nH]c(=O)c2C1 [39-1]
50 | < 50 |  | O=C([C@H](O)c1cccc(Cl)c1)N1CCCc2nc(C3(c4cncc(-c5cnsc5)c4)CC3)[nH]c(=O)c2C1 [19-10]
51 | < 50 | < 10 | CC(C(=O)N1CCCc2nc(C3(c4cccc(Cl)c4)CC3)[nH]c(=O)c2C1)c1cccc(C(F)(F)F)c1 (stereo not shown) [17-88]
52 | < 50 | < 10 | O=C(N1CCCc2nc(C3(c4cccc(-c5csc6ccccc56)c4)CC3)[nH]c(=O)c2C1)C(F)(F)c1cccc(C(F)(F)F)c1 [20-15]
53 | < 50 | < 3 | CC(C)(C)c1cccc(-c2cccc([C@@H](O)C(=O)N3CCc4nc(C5(c6ccccc6)CC5)[nH]c(=O)c4C3)c2)c1 [44-74]
54 | < 50 | < 10 | O=C(C(O)c1cccc(-c2cc(Cl)cc(Cl)c2)c1)N1CCc2nc(C3(c4ccccc4)CC3)[nH]c(=O)c2C1 (stereo not shown) [44-10]
55 | < 50 |  | O=C([C@@H](O)c1cccc(C(F)(F)F)c1)N1CCCc2nc(C3(c4cccc(Cl)c4)CC3)[nH]c(=O)c2C1 [17-93]
56 | < 50 | < 10 | O=C(C(O)c1cccc(-c2cnc3ccccc3c2)c1)N1CCCc2nc(C3(c4cccc(Cl)c4)CC3)[nH]c(=O)c2C1 (stereo not shown) [17-19]
